# According to ChEMBL document CHEMBL1773008 (ACS Med Chem Lett, 2010):
# Activity calls are given as the source filed them. No cut-off for these calls is given here.
# Tests used:
# MCF7 [1] = assay: Antiproliferative activity against human MCF7 cells after 72 hrs by MTS assay; assay type: functional, cell-based; details: MCF7, 72 h
# SK-BR-3 [2] = assay: Antiproliferative activity against human SKBR3 cells after 72 hrs by MTS assay; assay type: functional, cell-based; details: SK-BR-3, 72 h
# SK-BR-3 [3] = assay: Ratio of IC50 for compound to IC50 for novobiocin for human SKBR3 cells; assay type: functional
# [4] = molecular target: Heat shock protein HSP 90-beta (Homo sapiens) (UniProt P08238); assay: Inhibition of HSP90 in human MCF7 cells assessed as Her2 degradation at after 24 hrs by Western blot analysis; assay type: cell-based
# [5] = molecular target: Heat shock protein HSP 90-beta (Homo sapiens) (UniProt P08238); assay: Inhibition of HSP90 in human MCF7 cells assessed as Akt degradation at 0.5 to 7.5 uM after 24 hrs by Western blot analysis; assay type: cell-based
# [6] = molecular target: Heat shock protein HSP 90-beta (Homo sapiens) (UniProt P08238); assay: Inhibition of HSP90 in human MCF7 cells assessed as Her2 degradation at 0.5 to 7.5 uM after 24 hrs by Western blot analysis; assay type: cell-based
# [7] = molecular target: Heat shock protein HSP 90-beta (Homo sapiens) (UniProt P08238); assay: Inhibition of HSP90 in human MCF7 cells assessed as Akt degradation after 24 hrs by Western blot analysis; assay type: cell-based
# [8] = molecular target: Heat shock protein HSP 90-beta (Homo sapiens) (UniProt P08238); assay: Inhibition of HSP90 in human MCF7 cells assessed as Raf degradation at 0.5 to 7.5 uM after 24 hrs by Western blot analysis; assay type: cell-based
# [9] = molecular target: Heat shock protein HSP 90-beta (Homo sapiens) (UniProt P08238); assay: Inhibition of HSP90 in human MCF7 cells assessed as Raf degradation after 24 hrs by Western blot analysis; assay type: cell-based
# [10] = molecular target: Heat shock protein HSP 90-beta (Homo sapiens) (UniProt P08238); assay: Inhibition of HSP90 in human MCF7 cells assessed as Raf degradation at 0.5 to 100 uM after 24 hrs by Western blot analysis; assay type: cell-based
# SK-BR-3 [11] = assay: Ratio of IC50 for compound to IC50 for DHN2 for human SKBR3 cells; assay type: functional
# [12] = molecular target: Heat shock protein HSP 90-beta (Homo sapiens) (UniProt P08238); assay: Inhibition of HSP90 in human MCF7 cells assessed as Her2 degradation at 0.5 to 100 uM after 24 hrs by Western blot analysis; assay type: cell-based
# MCF7 [13] = assay: Ratio of IC50 for compound to IC50 for novobiocin for human MCF7 cells; assay type: functional
# [14] = molecular target: Heat shock protein HSP 90-beta (Homo sapiens) (UniProt P08238); assay: Inhibition of HSP90 in human MCF7 cells assessed as Akt degradation at 0.5 to 100 uM after 24 hrs by Western blot analysis; assay type: cell-based
# Heat shock protein HSP 90-beta (Homo sapiens), sequence (P08238 whole entry): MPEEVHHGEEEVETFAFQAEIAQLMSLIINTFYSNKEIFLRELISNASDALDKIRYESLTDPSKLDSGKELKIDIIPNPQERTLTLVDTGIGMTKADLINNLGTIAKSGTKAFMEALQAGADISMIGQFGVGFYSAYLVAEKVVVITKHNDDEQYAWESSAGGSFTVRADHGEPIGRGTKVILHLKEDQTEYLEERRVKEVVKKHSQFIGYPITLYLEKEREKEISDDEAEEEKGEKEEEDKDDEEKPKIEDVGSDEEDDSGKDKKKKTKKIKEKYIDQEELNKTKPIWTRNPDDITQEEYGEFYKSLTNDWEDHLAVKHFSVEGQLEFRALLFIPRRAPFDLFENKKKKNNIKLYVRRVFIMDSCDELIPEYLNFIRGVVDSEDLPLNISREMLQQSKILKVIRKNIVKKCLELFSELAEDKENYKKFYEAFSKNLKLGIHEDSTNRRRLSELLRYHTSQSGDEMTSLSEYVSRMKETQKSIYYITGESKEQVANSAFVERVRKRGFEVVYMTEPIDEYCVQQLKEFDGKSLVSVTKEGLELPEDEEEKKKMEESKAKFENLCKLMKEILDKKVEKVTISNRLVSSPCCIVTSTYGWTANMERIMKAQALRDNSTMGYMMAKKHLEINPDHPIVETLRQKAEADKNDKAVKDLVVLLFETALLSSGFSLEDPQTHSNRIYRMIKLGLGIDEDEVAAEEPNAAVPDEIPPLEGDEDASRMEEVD
IC50 (MCF7 [1]),IC50 (SK-BR-3 [2]),SMILES,Ratio IC50 (SK-BR-3 [3]),also measured
> 100000 nM,22200 nM,CC(C)=CCc1cc(C(=O)Nc2cc3ccc(O[C@@H]4C[C@H](O)CO4)c(C)c3oc2=O)ccc1O,1500,
1340 nM,5070 nM,CC(C)=CCc1cc(C(=O)Nc2cc3ccc(O[C@@H]4C[C@H](O)CCO4)c(C)c3oc2=O)ccc1O,1500,
1350 nM,440 nM,CC(C)=CCc1cc(C(=O)Nc2cc3ccc(OCCCN(C)C)c(C)c3oc2=O)ccc1O,,
850 nM,470 nM,CC(C)=CCc1cc(C(=O)Nc2cc3ccc(OC4CCNCC4)c(C)c3oc2=O)ccc1O,,inhibition [4]: Dose-dependent effect; inhibition [5]: Active; inhibition [6]: Active; inhibition [7]: Dose-dependent effect; inhibition [8]: Active; inhibition [9]: Dose-dependent effect
10100 nM,4690 nM,CC(C)=CCc1cc(C(=O)Nc2cc3ccc(OC4CCCN(C)C4)c(C)c3oc2=O)ccc1O (stereo unspecified),,
1540 nM,1230 nM,CC(=O)Oc1ccc(C(=O)Nc2cc3ccc(OC4CCCNC4)c(C)c3oc2=O)cc1CC=C(C)C (stereo unspecified),,
1180 nM,460 nM,CC(=O)Oc1ccc(C(=O)Nc2cc3ccc(OCCCN(C)C)c(C)c3oc2=O)cc1CC=C(C)C,,
10000 nM,10700 nM,CC(C)=CCc1cc(C(=O)Nc2cc3ccc(O[C@H]4OCC[C@@H](O)[C@H]4O)c(C)c3oc2=O)ccc1O,1500,
14300 nM,14400 nM,CC(C)=CCc1cc(C(=O)Nc2cc3ccc(O[C@@H]4OC[C@@H](O)[C@H]4O)c(C)c3oc2=O)ccc1O,1500,
1330 nM,750 nM,CNCCOc1ccc2cc(NC(=O)c3ccc(O)c(CC=C(C)C)c3)c(=O)oc2c1C,,
1560 nM,3110 nM,CC(C)=CCc1cc(C(=O)Nc2cc3ccc(O[C@H]4C[C@H](O)CCO4)c(C)c3oc2=O)ccc1O,200,inhibition [10]: Active; inhibition [4]: Dose-dependent effect; Ratio IC50 (SK-BR-3 [11]): 3; inhibition [7]: Dose-dependent effect; inhibition [9]: Dose-dependent effect; inhibition [12]: Active; Ratio IC50 (MCF7 [13]): 200; inhibition [14]: Active
6450 nM,7870 nM,CC(C)=CCc1cc(C(=O)Nc2cc3ccc(O[C@H]4OCCC[C@H]4O)c(C)c3oc2=O)ccc1O,1500,
1090 nM,,CC(C)=CCc1cc(C(=O)Nc2cc3ccc(OC4CCN(C)CC4)c(C)c3oc2=O)ccc1O,,
11300 nM,10900 nM,CO[C@@H]1[C@@H](O)[C@@H](O)[C@H](Oc2ccc3cc(NC(=O)c4ccc(O)c(CC=C(C)C)c4)c(=O)oc3c2C)OC1(C)C,1500,
13300 nM,6960 nM,CC(C)=CCc1cc(C(=O)Nc2cc3ccc(O[C@@H]4OCC[C@@H](O)[C@H]4O)c(C)c3oc2=O)ccc1O,1500,
13500 nM,9450 nM,CC(C)=CCc1cc(C(=O)Nc2cc3ccc(OCCN(C)C)c(C)c3oc2=O)ccc1O,,
1180 nM,580 nM,CC(=O)Oc1ccc(C(=O)Nc2cc3ccc(OC4CCN(C)CC4)c(C)c3oc2=O)cc1CC=C(C)C,,
1570 nM,1420 nM,CC(=O)Oc1ccc(C(=O)Nc2cc3ccc(OC4CCCN(C)C4)c(C)c3oc2=O)cc1CC=C(C)C (stereo unspecified),,
1530 nM,560 nM,CC(=O)Oc1ccc(C(=O)Nc2cc3ccc(OC4CCNCC4)c(C)c3oc2=O)cc1CC=C(C)C,,
22500 nM,21500 nM,CC(C)=CCc1cc(C(=O)Nc2cc3ccc(O[C@H]4C[C@H](O)CO4)c(C)c3oc2=O)ccc1O,1500,
1680 nM,790 nM,CC(C)=CCc1cc(C(=O)Nc2cc3ccc(OC4CCCNC4)c(C)c3oc2=O)ccc1O (stereo unspecified),,
2080 nM,910 nM,CNCCOc1ccc2cc(NC(=O)c3ccc(OC(C)=O)c(CC=C(C)C)c3)c(=O)oc2c1C,,
4760 nM,1320 nM,CC(=O)Oc1ccc(C(=O)Nc2cc3ccc(OCCN(C)C)c(C)c3oc2=O)cc1CC=C(C)C,,
10200 nM,30000 nM,CC(C)=CCc1cc(C(=O)Nc2cc3ccc(O[C@@H]4OCCC[C@H]4O)c(C)c3oc2=O)ccc1O,1500,
